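Dose response: 5 concentrations. Exposure: 48 h. Format: 96-well plates. Endpoint: linear interpolation; highest concentration if not reached. The concentration for 50% growth inhibition is given as GI50.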 Calls of active or inactive are those of the source. Rule as the data show it: active = GI50 up to about 1.1 µM and inactive = higher.
Experiments:
Assay in all cases: NCI tumour cell line growth inhibition, 48 h
[1] = tested on: ACHN
[2] = tested on: COLO 205
[3] = tested on: RXF 393
[4] = tested on: LOX IMVI
[5] = tested on: CCRF-CEM
[6] = tested on: U-251
[7] = tested on: NCI-H460
[8] = tested on: SW-620
[9] = tested on: A549
[10] = tested on: Malme-3M
[11] = tested on: SF-539
[12] = tested on: SK-MEL-5
[13] = tested on: OVCAR-3
[14] = tested on: UO-31
[15] = tested on: HT-29
[16] = tested on: SR
[17] = tested on: HCC 2998

Measured: GI50

CC(=O)C1C(c2ccccc2)C2(C)OC(=O)C(C#N)C12C (centres undefined)
inactive: [1] > 100 µM | [2] > 100 µM | [3] > 100 µM | [4] > 100 µM | [5] > 100 µM | [6] > 100 µM | [7] > 100 µM | [8] > 100 µM | [9] > 100 µM | [10] > 100 µM | [11] > 100 µM | [12] > 100 µM | [13] > 100 µM | [14] > 100 µM

O=C1NC2(CCCCCC2)C2CCCCCCC12O (centres undefined)
inactive: [1] > 100 µM | [2] > 100 µM | [3] > 100 µM | [4] > 100 µM | [5] > 100 µM | [6] > 100 µM | [7] > 100 µM | [8] > 100 µM | [9] > 100 µM | [10] > 100 µM | [11] > 100 µM | [12] > 100 µM | [15] > 100 µM | [13] > 100 µM | [14] > 100 µM | [16] > 100 µM

Cn1cnc2nc(Cl)nc(NC(C)(C)C(C)(C)O)c21
inactive: [1] > 100 µM | [2] > 100 µM | [3] > 100 µM | [5] > 100 µM | [6] > 100 µM | [7] > 100 µM | [8] > 100 µM | [9] > 100 µM | [10] > 100 µM | [11] > 100 µM | [17] > 100 µM | [12] > 100 µM | [15] > 100 µM | [13] > 100 µM | [14] > 100 µM | [16] > 100 µM

Cc1cc(N(CCC#N)CCC#N)ccc1/C=C(\NC(=O)/C=C/c1ccccc1)NC(=O)Nc1ccccc1C
inactive: [1] 55.3 µM | [2] > 100 µM | [3] 17.2 µM | [4] 63.4 µM | [5] > 100 µM | [6] 17.1 µM | [7] 76.2 µM | [8] > 100 µM | [9] > 100 µM | [10] > 100 µM | [11] 38.1 µM | [17] > 100 µM | [12] 61 µM | [15] > 100 µM | [13] > 100 µM | [14] > 100 µM

C[C@]12CCC(=O)C(O)=C1CC[C@@H]1C2CC[C@]2(C)Nc3c(cnn3-c3ccccc3)CC12 (some centres undefined)
inactive: [1] > 100 µM | [3] 55.1 µM | [5] 37.2 µM | [6] > 100 µM | [7] 48.8 µM | [8] > 100 µM | [9] > 100 µM | [10] 91 µM | [11] 67.6 µM | [17] > 100 µM | [12] 38.8 µM | [15] 39.4 µM | [13] 54.8 µM | [14] 26.3 µM

O=C(O)CCC(=O)N1c2ccccc2CC1c1c[nH]c2ccccc12 (centres undefined)
inactive: [1] > 100 µM | [2] > 100 µM | [3] > 100 µM | [4] > 100 µM | [5] > 100 µM | [6] > 100 µM | [7] > 100 µM | [8] > 100 µM | [9] > 100 µM | [10] > 100 µM | [11] > 100 µM | [17] > 100 µM | [12] > 100 µM | [15] > 100 µM | [13] > 100 µM | [14] 33.2 µM

CCN(CC)CCN1CCc2c([nH]c3ccccc23)C1c1cccnc1 (centres undefined)
inactive: [1] > 100 µM | [4] > 100 µM | [5] 94.6 µM | [6] > 100 µM | [7] > 100 µM | [8] > 100 µM | [9] > 100 µM | [11] > 100 µM | [17] > 100 µM | [12] > 100 µM | [15] > 100 µM | [13] > 100 µM | [14] 37.2 µM | [16] > 100 µM

Cc1cc2c(=O)c3ccccc3[nH]c2c(C(=O)O)c1C
inactive: [1] > 100 µM | [2] > 100 µM | [3] 67.1 µM | [5] > 100 µM | [6] > 100 µM | [7] > 100 µM | [8] > 100 µM | [9] > 100 µM | [11] > 100 µM | [17] > 100 µM | [15] > 100 µM | [13] > 100 µM | [14] 43.9 µM | [16] > 100 µM

COc1ccc(O)cc1C(O)c1ccccc1 (centres undefined)
inactive: [1] > 100 µM | [2] > 100 µM | [3] > 100 µM | [4] > 100 µM | [5] > 100 µM | [6] > 100 µM | [7] > 100 µM | [8] > 100 µM | [9] > 100 µM | [10] > 100 µM | [11] > 100 µM | [17] > 100 µM | [12] > 100 µM | [15] > 100 µM | [13] > 100 µM | [14] > 100 µM

Brc1cccc(/C=N/C23CC4CC(CC(C4)C2)C3)c1
inactive: [1] > 100 µM | [2] > 100 µM | [3] > 100 µM | [4] > 100 µM | [5] > 100 µM | [6] > 100 µM | [7] > 100 µM | [8] > 100 µM | [9] > 100 µM | [10] > 100 µM | [11] > 100 µM | [17] > 100 µM | [12] > 100 µM | [15] > 100 µM | [13] > 100 µM | [14] > 100 µM

CCOC(=O)C(C(=O)OCC)=C1C=C(c2ccccc2)c2ccccc21
inactive: [1] 41 µM | [2] 54.2 µM | [3] 40.2 µM | [4] 28.8 µM | [5] 27.5 µM | [6] 86.7 µM | [7] 31.8 µM | [8] 89.3 µM | [9] 79.3 µM | [10] > 100 µM | [11] 62.7 µM | [17] 7.29 µM | [12] 31.1 µM | [15] 42.8 µM | [13] > 100 µM | [14] > 100 µM

O=C(Cc1ccccc1)NN1C(=O)C(Cl)C1c1ccccc1 (centres undefined)
inactive: [1] > 100 µM | [2] > 100 µM | [3] 77.6 µM | [5] 18.6 µM | [6] > 100 µM | [7] > 100 µM | [8] > 100 µM | [9] > 100 µM | [10] > 100 µM | [17] > 100 µM | [12] 74.1 µM | [15] > 100 µM | [13] 37.2 µM | [14] 88.7 µM | [16] 18.3 µM

c1ccc2c(c1)CCCc1cc3ccccc3nc1-2
inactive: [1] > 100 µM | [2] 29.9 µM | [5] 94.6 µM | [6] > 100 µM | [7] > 100 µM | [8] > 100 µM | [9] > 100 µM | [10] > 100 µM | [11] > 100 µM | [17] > 100 µM | [12] 92.5 µM | [15] 46.3 µM | [13] > 100 µM | [14] > 100 µM

O=C(NCCO)c1ccc([N+](=O)[O-])cc1
inactive: [2] > 100 µM | [3] > 100 µM | [4] > 100 µM | [5] > 100 µM | [6] > 100 µM | [7] > 100 µM | [8] > 100 µM | [9] > 100 µM | [10] > 100 µM | [11] > 100 µM | [17] > 100 µM | [12] > 100 µM | [15] > 100 µM | [13] > 100 µM | [14] > 100 µM

O=CC1CCC=CC1NC(=O)OCc1ccccc1 (centres undefined)
inactive: [1] > 100 µM | [2] > 100 µM | [3] 54.6 µM | [4] 48.4 µM | [5] 25.9 µM | [6] 57.5 µM | [7] 59.3 µM | [8] 37.2 µM | [9] > 100 µM | [11] 23 µM | [12] 51.9 µM | [15] 51.4 µM | [14] > 100 µM | [16] 30.7 µM

C/C(CC(=O)Nc1ccc([N+](=O)[O-])cc1)=N\Nc1ccc([N+](=O)[O-])cc1[N+](=O)[O-]
inactive: [1] 10.8 µM | [2] 89.7 µM | [3] > 100 µM | [4] 10.7 µM | [5] 45 µM | [6] > 100 µM | [7] 44.4 µM | [8] > 100 µM | [9] 44.7 µM | [10] > 100 µM | [11] 41 µM | [17] 13.9 µM | [12] 47.4 µM | [15] > 100 µM | [13] 98.2 µM | [14] 20.6 µM

CC12OC3(O)C4C5CC(C6C5C3C61)C42 (centres undefined)
inactive: [1] > 100 µM | [2] > 100 µM | [3] > 100 µM | [5] > 100 µM | [6] > 100 µM | [8] > 100 µM | [9] > 100 µM | [10] > 100 µM | [11] > 100 µM | [17] > 100 µM | [14] > 100 µM | [16] > 100 µM

Cn1c(=O)nc2n(-c3ccc(F)cc3)c3ccccc3nc-2c1=O
inactive: [1] 13.9 µM | [2] 6.84 µM | [3] 23.8 µM | [5] 26.6 µM | [6] 21.5 µM | [7] 18.2 µM | [8] 18.8 µM | [9] 18.3 µM | [10] 10.5 µM | [11] 21.3 µM | [17] 19.1 µM | [12] 12.6 µM | [15] 14.1 µM | [13] 3.13 µM | [14] 38.4 µM

From ChEMBL document CHEMBL1201862, “PubChem BioAssay data set” (2004)
